Experimental data as given in patent publication US11992479B2, “R-fadrozole for use in the treatment of aldostonerism” (priority 2018, dated 2024).
Where two headings read alike, the source gives them in different places. Marks after values point to notes of the source that are not given here.

Tests used:
estradiol = details: for Serum Estradiol: mean ± SEM
Procedure: (§1) All of the above assays used for measuring serum estradiol, testosterone, and FSH levels were conducted as described by the manufacture.

testosterone = details: for Serum Testosteron: mean ± SEM
Procedure: as §1

[1] = test system: follicle stimulating hormone (FSH); details: for Serum FSH: mean ± SEM
Procedure: as §1

[2] = up until 225° C., TGA/DSC
Procedure: The thermogravimetric analysis and differential scanning calorimetry (TGA/DSC) studies were performed using a Mettler Toledo TGA/DSC1 STARe System with a 34-position auto sampler. The samples were made using AI crucibles (40 μL; pierced). Typically 5-10 mg of sample was loaded into a pre-weighed Al crucible and was kept at 30° C. for 5 minutes, after which it was heated at 10° C./min from 30° C. to 350° C. A nitrogen purge of 40 ml/min was maintained over the sample. […] No corrections were applied to the thermogram.

plasma aldosterone = details: for Plasma levels of Aldosterone: mean ± SEM
From the text: There were 6 subjects treated with each dose and twelve subjects treated with placebo (two placebo-treated-subjects included with each dose group).
The diet consisted of 70-80 mEq/day of sodium and 80-90 mEq/day of potassium. Blood samples were obtained daily at the time points indicated in the accompanying Tables for measurements of aldosterone, 11β-deoxycorticosterone (DOC), and potassium (K^+). All of the blood samples were obtained while the subjects were seated in a resting state.
Statistical evaluations of the hormonal responses was performed using the two-tailed, paired Student's t-test to evaluate within treatment group data, and data from between treatment groups utilized the two-tailed t-test equal variance model.

[3] = Procedure: The Dynamic Vapour Sorption (DVS) studies were performed using a Surface Measurement Systems Ltd. DVS-1 No Video. The sample was loaded into a balance pan, typically 20-30 mg, and equilibrated at 0% RH. […] After completion of the sorption cycle, the sample was dried using the same method. The software used for data collection was DVSWin v3.01 No Video. Data analysis was performed using DVS Standard Analysis Suite v6.3.0 (Standard).
[4] = 4 mg once daily, Day 1 (08:00 h), pretreatment
[5] = 4 mg once daily, Day 2 (08:00 h)
[6] = 4 mg once daily, Day 9 (08:00 h)
[7] = 8 mg once daily, Day 1 (08:00 h), pretreatment
[8] = 8 mg once daily, Day 2 (08:00 h)
[9] = 8 mg once daily, Day 9 (08:00 h)
[10] = 16 mg once daily, Day 1 (08:00 h), pretreatment
[11] = 16 mg once daily, Day 2 (08:00 h)
[12] = 16 mg once daily, Day 9 (08:00 h)
[13] = once-daily oral dosing with 4, 8, or 16 mg

Serum Estradiol (estradiol; [4]): 98 ± 10.2 pM/L
Serum Estradiol (estradiol; [5]): 92 ± 9.8 pM/L
Serum Estradiol (estradiol; [6]): 127 ± 8.3^a,b pM/L
Serum Estradiol (estradiol; [7]): 90.0 ± 9.5 pM/L
Serum Estradiol (estradiol; [8]): 90.0 ± 12.1 pM/L
Serum Estradiol (estradiol; [9]): 113 ± 8.3^a pM/L
Serum Estradiol (estradiol; [10]): 97.4 ± 15.3 pM/L
Serum Estradiol (estradiol; [11]): 97.0 ± 9.4 pM/L
Serum Estradiol (estradiol; [12]): 114.0 ± 8.5 pM/L
change of estradiol (estradiol; 4 and 8 mg doses after 8 days of treatment): slightly increased
effect on estradiol (estradiol; [13]): neither inhibited estradiol
Serum Testosteron (testosterone; [4]): 17 ± 1.9 nM/L
Serum Testosteron (testosterone; [5]): 18 ± 1.9 nM/L
Serum Testosteron (testosterone; [6]): 15 ± 1.5^b nM/L
Serum Testosteron (testosterone; [7]): 18 ± 1.7 nM/L
Serum Testosteron (testosterone; [8]): 21 ± 6.2^a nM/L
Serum Testosteron (testosterone; [9]): 16 ± 1.4^a nM/L
Serum Testosteron (testosterone; [10]): 17 ± 1.9 nM/L
Serum Testosteron (testosterone; [11]): 20 ± 2.0^a nM/L
Serum Testosteron (testosterone; [12]): 17 ± 1.7 nM/L
Serum FSH [1, 4]: 2.7 ± 0.22 IU/L
Serum FSH [1, 5]: 2.7 ± 0.27 IU/L
Serum FSH [1, 6]: 2.7 ± 0.27 IU/L
Serum FSH [1, 7]: 4.3 ± 0.94 IU/L
Serum FSH [1, 8]: 4.1 ± 0.79 IU/L
Serum FSH [1, 9]: 4.1 ± 0.91 IU/L
Serum FSH [1, 10]: 2.6 ± 0.43 IU/L
Serum FSH [1, 11]: 2.5 ± 0.43 IU/L
Serum FSH [1, 12]: 2.5 ± 0.43 IU/L
Mass loss upon heating [2]: 1.4%
Structure (SMILES): N#Cc1ccc([C@H]2CCCc3cncn32)cc1.O=P(O)(O)O [DP13, (R)-(+)-5-(p-cyanophenyl)-5,6,7,8-tetrahydroimidazolium[1,5-a]pyridine dihydrogen phosphate]
effect on circulating testosterone (testosterone; [13]): nor increased circulating testosterone or FSH
effect on circulating FSH [1, 13]: nor increased circulating testosterone or FSH
suppression of plasma aldosterone compared to placebo (plasma aldosterone; 1 mg dose): 52%
suppression of plasma aldosterone compared to pretreatment values (plasma aldosterone; 1 mg dose, 18 and 24 hours after the last once daily dose on day 8 (so in the source)): 18%
suppression of plasma aldosterone compared to placebo (plasma aldosterone; 2 mg dose): 61%
suppression of plasma aldosterone compared to pretreatment values (plasma aldosterone; 2 mg dose, 18 and 24 hours after the last once daily dose on day 8 (so in the source)): 39%
Plasma levels of Aldosterone (plasma aldosterone; 4 mg once daily oral, 8 days, Day 1, 08:00 h, pretreatment): 306.2 ± 59.0 pmol/L
Plasma levels of Aldosterone (plasma aldosterone; [5]): 198.4 ± 43.4^b,d pmol/L
Plasma levels of Aldosterone (plasma aldosterone; 4 mg once daily, Day 8, 14:00 h): 166.2 ± 17.9^c,d pmol/L
Plasma levels of Aldosterone (plasma aldosterone; 4 mg once daily, Day 9, 08:00 h (24 h after last dose)): 334.9 ± 53.3 pmol/L
plasma aldosterone versus placebo control (plasma aldosterone; 4 mg/day oral, day 9, twenty-four hours after the last of 8 daily doses): failed to lower the plasma aldosterone level below the level of the placebo control
Plasma levels of Aldosterone (plasma aldosterone; 8 mg once daily oral, 8 days, Day 1, 08:00 h, pretreatment): 271.4 ± 31.5 pmol/L
Plasma levels of Aldosterone (plasma aldosterone; [8]): 118.0 ± 12.4^b,d pmol/L
Plasma levels of Aldosterone (plasma aldosterone; 8 mg once daily, Day 8, 14:00 h): 91.9 ± 7.5^c,d pmol/L
Plasma levels of Aldosterone (plasma aldosterone; 8 mg once daily, Day 9, 08:00 h (24 h after last dose)): 186.4 ± 22.1^d pmol/L
suppression of plasma aldosterone compared to pretreatment values (plasma aldosterone; 8 mg once daily, twenty-four hours after the last dose on day 8): 32%
Plasma levels of Aldosterone (plasma aldosterone; 16 mg once daily oral, 8 days, Day 1, 08:00 h, pretreatment): 314.6 ± 48.6 pmol/L
Plasma levels of Aldosterone (plasma aldosterone; [11]): 108.4 ± 13.4^b,d pmol/L
Plasma levels of Aldosterone (plasma aldosterone; 16 mg once daily, Day 8, 14:00 h): 100.9 ± 8.3^c,d pmol/L
Plasma levels of Aldosterone (plasma aldosterone; 16 mg once daily, Day 9, 08:00 h (24 h after last dose)): 156.0 ± 26.8^a,d pmol/L
suppression of plasma aldosterone compared to pretreatment values (plasma aldosterone; 16 mg once daily, twenty-four hours after the last dose on day 8): 50%
Plasma levels of Aldosterone (plasma aldosterone; single dose 1 mg, Day 1, 08:00 h, pretreatment): 171 ± 8.1 pmol/L
Plasma levels of Aldosterone (plasma aldosterone; single dose 1 mg, Day 1, 14:00 h): 118 ± 8.4^e pmol/L
Plasma levels of Aldosterone (plasma aldosterone; single dose 1 mg, Day 1, 20:00 h): 104 ± 4.9^e pmol/L
Plasma levels of Aldosterone (plasma aldosterone; single dose 1 mg, Day 2, 08:00 h): 141 ± 14^e pmol/L
Plasma levels of Aldosterone (plasma aldosterone; single dose 2 mg, Day 1, 08:00 h, pretreatment): 203 ± 13.8 pmol/L
Plasma levels of Aldosterone (plasma aldosterone; single dose 2 mg, Day 1, 14:00 h): 129 ± 8.8^e pmol/L
Plasma levels of Aldosterone (plasma aldosterone; single dose 2 mg, Day 1, 20:00 h): 114 ± 9.2^e pmol/L
Plasma levels of Aldosterone (plasma aldosterone; single dose 2 mg, Day 2, 08:00 h): 124 ± 9^e pmol/L
crystalline form upon DVS treatment [3]: crystalline form does not change upon DVS treatment
